Measurements published in publication PMC5428058, “Local delivery of novel MRTF/SRF inhibitors prevents scar tissue formation in a preclinical model of fibrosis” (Scientific Reports, 2017).

Key:
[1] = tested on: New Zealand white rabbits; assay: rabbit glaucoma filtration surgery model of scar tissue formation, clinical end-points; format: in vivo
Text: 24 female New Zealand white rabbits (2–2.4 kg, 12—14 weeks, Highgate, UK) underwent experimental glaucoma filtration surgery to the left eye under general anaesthesia, [28]. A superonasal fornix-based conjunctival flap was raised behind the limbus and a micro-vitreoretinal blade (20 gauge, 0.90 mm, Surgistar USA) was used to make a partial thickness scleral tunnel to the corneal stroma. A 22 gauge, 25 mm intravenous cannula was passed through the tunnel and the needle was removed once it was visible in the cornea. The cannula was advanced into the mid-pupillary area, trimmed at its scleral edge and fixed to the scleral surface using a 10–0 nylon suture (Alcon, USA). The conjunctival incision was closed using two interrupted 10–0 nylon sutures. In a randomised, prospective, single-masked observer study, the rabbits received either intraoperative 0.2 mg/ml mitomycin-C (MMC) [N = 6], or postoperative subconjunctival injections (100 μl) of 100 μM CCG-203971 [N = 6] or 100 μM CCG-222740 [N = 6] or vehicle control [N = 6] daily for the first nine days followed by twice weekly for three weeks, [33]. CCG-222740 and CCG-203971 were dissolved in 100% DMSO (Sigma, UK) at 10 mM and then diluted to 100 μM with sterile PBS. The same volume of DMSO was diluted with PBS for the vehicle control. For the MMC-treated group, a small corneal light shield sponge was soaked in 1 ml of 0.2 mg/ml MMC and applied over the conjunctiva for 3 minutes, and the area was then thoroughly washed with 50 ml of physiologic balanced salt solution (Alcon Laboratories, Inc., Fort Worth, TX). All the postoperative subconjunctival injections were given at the same site by a single-masked researcher.
(§1) The animals were evaluated twice weekly by a single-masked researcher. Bleb width and length were measured using calipers and intraocular pressures (IOP) were measured using a tonovet (Icare). The primary efficacy end-point was bleb survival as this is indicative of the long-term opening of the filtration pathway created during surgery. Bleb failure was defined as the appearance of a flat, scarred, and vascularised bleb associated with a deep anterior chamber. IOP survival, defined as when the intraocular pressure remains below the baseline IOP measurement, and bleb area were used as secondary end-points. Conjunctival vascularity was graded on a scale of 0 to 3 (0: avascular, 1: normal, 2: hyperaemic, 3: very hyperaemic).

[2] = tested on: New Zealand white rabbits; assay: local and systemic toxicity after glaucoma filtration surgery; format: in vivo; conditions: rabbit
Description: as §1
For the Ki67 staining, the sections were dewaxed, rehydrated, and microwaved for 15 minutes in sodium citrate buffer (pH 6) for antigen retrieval. After incubating in 1.6% hydrogen peroxide followed by 10% normal horse serum, the sections were incubated in mouse anti-Ki67 (M7248, Dako) diluted 1 in 25 in 1% BSA/PBS for 1 hour at room temperature. The sections were then incubated in biotinylated horse anti-mouse IgG (Vector) and Avidin-Biotin complex (Vector), developed in DAB (Vector), and counterstained in haematoxylin.
All animals were carefully evaluated for any signs of ocular or systemic toxicity during the study. At day 30, 100 µl of aqueous, 1 ml of vitreous, and 1 ml of venous blood were sampled on the rabbit eyes receiving CCG-222740 or CCG-203971 or vehicle control. The venous blood samples were left to clot for 30 minutes at room temperature, spun at 4000 rpm for 15 minutes at 4 °C, and the serum was collected as the supernatant. Samples were extracted in acetonitrile and the levels of CCG-222740 and CCG-203971 were measured in the aqueous, vitreous, and serum using liquid chromatography/mass spectrometry (LC/MS) in the Metabolomics Core at Michigan State University (East Lansing, MI).

## CO[C@@]12[C@H](COC(N)=O)C3=C(C(=O)C(C)=C(N)C3=O)N1C[C@@H]1N[C@@H]12 [MMC, mitomycin-C, reference compound]
[1]
  bleb area compared to vehicle control: significantly larger
[1]; CCG compounds 100 μM subconjunctival, MMC 0.2 mg/ml intraoperative, vehicle 14 days
  mean day of bleb failure: 28.8 days
[1]; versus vehicle control or baseline
  intraocular pressure (IOP): significantly lower
[2]; day 30
  Ki67 positive cells in the conjunctival epithelium: markedly reduced the number of Ki67 positive cells
[2]; in vivo
  conjunctival vascularity: thin avascular blebs
  local toxicity, conjunctival epithelium: caused disruption of the epithelial cell layer
